Measurements published in article PMC6983054, “Toxicity and Antitumor Activity of a Thiophene–Acridine Hybrid” (Molecules, 2019).
Read-outs that look alike come from different tables or passages of the source.

Tests used:
[1] = system: HCT-116 cells (human colon carcinoma cell line); assay: MTT cytotoxicity assay, HCT-116; format: cell-based
Description: Colorectal carcinoma cells (HCT-116), chronic myelogenous leukemia (K562), and acute promyelocytic leukemia (HL-60) were generously provided by Dr. Manoel de Moraes (Federal University of Ceará, Fortaleza, Brazil) and cultured in Roswell Park Memorial Institute 1640 (RPMI 1640; Sigma Aldrich, St. Louis, MO, USA) medium supplemented with 10% fetal bovine serum (GIBCO, Grand Island, NY, USA) and 1% penicillin–streptomycin (Sigma Aldrich, St. Louis, MO, USA). Human keratinocyte cells (HaCaT; provided by Dr. Jaciana Aguiar from Federal University of Pernambuco, Recife, Pernambuco, Brazil), cervical cancer cells (HeLa; purchased from the cell bank of Rio de Janeiro, Rio de Janeiro, Brazil), and breast cancer cells (MCF-7; provided by Dr. João Ernesto de Carvalho from University of Campinas, Campinas, São Paulo, Brazil) were grown and maintained in Dulbecco’s Modified Eagle’s Medium (DMEM; Sigma Aldrich, St. Louis, MO, USA) supplemented with 10% fetal bovine serum (GIBCO, Grand Island, NY, USA) and 1% penicillin–streptomycin (Sigma Aldrich, St. Louis, MO, USA). All cell types were maintained in 5% CO2 at 37 °C with humidity.
MTT (3-(4,5-dimethylthiazol-2-yl)-2,5-diphenyltetrazolium bromide) reduction assay was used to evaluate the cytotoxicity of ACS03 and its precursors (2-amino-5,6,7,8-tetrahydro-4H-cyclohepta[b]thiophene-3-carbonitrile and 6,9-dichloro-2-methoxyacridine) against tumor and non-tumor cell lines and PBMC. For the MTT assay, cell lines (3 × 10^5 cells/mL) and PBMC (1 × 10^6 cells/mL) were seeded on 96-well plates and cultured for 24 h. ACS03 (3.125–200 µM) was added to the cell cultures and incubated for 72 h. After incubation, 110 µL of the supernatant was removed and 10 μL of the MTT reagent (Sigma Aldrich, St. Louis, MO, USA) was added to each well, and the plates were then incubated at 37 °C. Following 3 h incubation, 100 μL of sodium dodecyl sulfate (SDS) was added to dissolve the formazan crystals produced and left overnight to incubate. The amount of formazan is proportional to the number of viable cells present. The optical density was measured using a microplate spectrophotometer reader (Microplate reader BioTek Instruments, Sinergy HT, Winooski, VT, USA) at λ = 570 nm and used to calculate the IC50 (half maximal inhibitory concentration).

[2] = system: K562 (chronic myeloid leukemic cell line); assay: MTT cytotoxicity assay, K562; format: cell-based; conditions: Homo sapiens, 72 h
Description: (§1) Colorectal carcinoma cells (HCT-116), chronic myelogenous leukemia (K562), and acute promyelocytic leukemia (HL-60) were generously provided by Dr. Manoel de Moraes (Federal University of Ceará, Fortaleza, Brazil) and cultured in Roswell Park Memorial Institute 1640 (RPMI 1640; Sigma Aldrich, St. Louis, MO, USA) medium supplemented with 10% fetal bovine serum (GIBCO, Grand Island, NY, USA) and 1% penicillin–streptomycin (Sigma Aldrich, St. Louis, MO, USA). […]
(§2) MTT (3-(4,5-dimethylthiazol-2-yl)-2,5-diphenyltetrazolium bromide) reduction assay was used to evaluate the cytotoxicity of ACS03 and its precursors (2-amino-5,6,7,8-tetrahydro-4H-cyclohepta[b]thiophene-3-carbonitrile and 6,9-dichloro-2-methoxyacridine) against tumor and non-tumor cell lines and PBMC. […] The optical density was measured using a microplate spectrophotometer reader (Microplate reader BioTek Instruments, Sinergy HT, Winooski, VT, USA) at λ = 570 nm and used to calculate the IC50 (half maximal inhibitory concentration).

erythrocytes = system: erythrocytes; set-up: method as in PMID 29415325; conditions: cited from earlier work
[3] = system: LDH (Lactate dehydrogenase); assay: LDH activity in zebrafish larvae; format: in vivo; conditions: 96 h, control 316.6 ± 1.28
Procedure: (§3) The FET test was repeated for ACS03 under the same conditions described above, but this time the embryos were independently exposed to three concentrations (10, 20, and 40 µM). At the end of the exposure period (96 h), the larvae were quickly frozen in a ratio of 1 larva per 100 µL of 0.1 M sodium phosphate buffer, pH 7.4.
(§4) Larval groups from each of the three tested concentrations and a negative control group (exposed to E3 medium only) were macerated using 1:9 (w/v) cold 0.9% NaCl solution. The homogenates were centrifuged at 10,000× g for 10 min at 4 °C, and the resulting supernatants were used for the measurement of soluble protein content and enzyme activity. The activities of acetylcholinesterase (AChE), glutathione S-transferase (GST), and lactate dehydrogenase (LDH) were measured according to Domingues et al. (2010). Tests were done in quadruplicate for each enzyme.

[4] = Acute preclinical toxicity in mice (OECD 423); format: in vivo, mice (Mus musculus); conditions: female, Swiss albino, mouse, in vivo, ip, estimated, OECD 423, read-out: LD50 (lethal dose 50%)
Procedure: (§5) Female Swiss albino mice (Mus musculus) weighing between 28 and 32 g, with an approximate age of 60 days and obtained from the Dr. Thomas George Bioterium (Research Institute in Drugs and Medicines/Federal University of Paraíba, Paraíba, Brazil) were used. The animals were grouped in polyethylene cages containing six animals, with free access to food (Purina® feed pellets, St. Louis, MO, USA) and water. The animals were kept under controlled conditions (21 ± 1 °C, 12 h/12 h off light/dark cycle). All experiments were approved by the Committee on Ethical Use of Animals in Research (CEUA) of Federal University of Paraíba, Brazil, certified by number 093/2017.
(§6) The acute toxicity test in mice was performed according to the Guideline for Testing of Chemicals no. 423 of the Organization for Economic Co-operation and Development (OECD). Mice were divided into different groups (n = 3 females/group). The control group received vehicle alone (12% (v/v) Tween 80 in saline), and ACS03 was tested in single doses of 300 or 2000 mg/kg, intraperitoneally (i.p.). The dose responsible for the death of 50% of the experimental animals (LD50) was estimated.

Swiss albino mice = assay: Acute preclinical toxicity in mice (OECD 423); format: in vivo, mice (Mus musculus)
Procedure: as §5, §6

Leishmania = system: Leishmania; set-up: method as in PMID 29415325; conditions: cited from earlier work
[5] = Fish embryo acute toxicity (FET) test; set-up: species or system zebrafish (Danio rerio); conditions: wild-type, in vivo, zebrafish embryos, 96 h exposure; for EC50 at 96 h: zebrafish
Procedure: The zebrafish (Danio rerio) embryos were provided by the zebrafish facility established at Department of Molecular Biology, Federal University of Paraíba (João Pessoa, Brazil). To obtain embryos, an egg trap was placed overnight in a tank containing male and female specimens (1:1 ratio) of a wild-type strain one day prior to testing. One hour after the beginning of the light cycle (14 h light/10 h dark), eggs were collected and rinsed with E3 medium (5 mM NaCl, 0.17 mM KCl, 0.33 mM CaCl2, and 0.33 mM MgSO4). Viable fertilized eggs were selected using a stereomicroscope (80× magnification), and embryotoxicity analysis was carried out. All experiments were approved by the Committee on Ethical Use of Animals in Research (CEUA) of Federal University of Paraíba, Brazil, certified by number 5900310718/2018.
The fish embryo acute toxicity (FET) test was conducted with ACS03 according to OECD’s guideline no. 236, with slight modifications. Zebrafish embryos of up to 3 hpf (hours post fertilization) of age were initially exposed to 250–15.62 µM. For each concentration tested, we prepared a 96-well plate containing 20 fertilized eggs (1 embryo per well) exposed to the test sample and 4 embryos exposed only to E3 medium (internal controls). The exposure was performed for 96 h, and the embryos were analyzed every 24 h for the apical endpoints: egg coagulation; lack of somite formation; lack of detachment of the tail-bud from the yolk sac; and lack of heartbeat. In the presence of any of these endpoints, the embryo/larva was considered dead. The number of deaths was used to calculate the LC50 (median lethal concentration). Sublethal effects were also recorded in order to obtain the EC50 (median effect concentration), them being spinal deformation, reduction in larval length, and pericardial edema. The exposures were under static conditions (without renovation of test sample or E3 medium). Observations were performed in a stereomicroscope (80× magnification) and photographed (Zeiss). After 96 h, surviving larvae were euthanized with eugenol and properly discarded.
The results are expressed as the mean ± SEM. Statistical analysis of data was performed using analysis of variance (ANOVA), followed by Tukey’s test (p < 0.05). For zebrafish embryo cytotoxicity, the median lethal concentration (LC50) values and the median effect concentration (EC50) values were calculated by probit regression analysis.

[6] = system: HL-60 (human promyelocytic leukemia cell line); assay: MTT cytotoxicity assay, HL-60; format: cell-based; conditions: HL-60, MTT, 72 h
Description: as §1, §2

[7] = system: AChE (Acetylcholinesterase); assay: AChE activity in zebrafish larvae; format: in vivo, zebrafish (Danio rerio); conditions: 96 h, control 66.35 ± 0.04
Procedure: as §3, §4

[8] = system: Ehrlich ascites carcinoma; assay: In vivo antitumor activity, Ehrlich ascites carcinoma model; set-up: species or system mice (Mus musculus); conditions: 12.5 mg/kg i.p., seven days
Description: Ehrlich ascites carcinoma was generously provided by Pharmacology and Toxicology Division, CPQBA, UNICAMP (Paulínia, São Paulo, Brazil). The cells were maintained in the peritoneal cavities of Swiss mice in the Dr. Thomas George Bioterium (Research Institute in Drugs and Medicines/Federal University of Paraíba, João Pessoa, Brazil).
as §5
Mice were inoculated with 4 × 10^6 cells/mL of Ehrlich tumor cells (0.5 mL/animal), intraperitoneally (i.p.). After 24 h, mice were divided into […] (n = 6/group) and treated with vehicle alone (12% (v/v) Tween 80 in saline), 5-FU (standard drug, 25 mg/kg), or ACS03 (3.125, 6.25, 12.5, or 25 mg/kg) for seven consecutive days (i.p.). […]

[9] = system: GST (Glutathione S-transferase); assay: GST activity in zebrafish larvae; format: in vivo, zebrafish (Danio rerio); conditions: 96 h, control 31.8 ± 0.05
Procedure: as §3, §4

[10] = system: HeLa (human cervical cancer cell line); assay: MTT cytotoxicity assay, HeLa; format: cell-based; conditions: 72 h
Description: as §1, §2

[11] = system: HaCat (Human immortalized keratinocytes cell line); assay: MTT cytotoxicity assay, HaCat non-tumor cells; format: cell-based; conditions: 72 h
Description: as §1, §2

nitrite (nitric oxide) = assay: Nitrite levels in ascitic fluid, Ehrlich ascites carcinoma model (Griess); format: in vivo, mice (Mus musculus); conditions: peritoneal fluid, 12.5 mg/kg; control 36.09 ± 0.72 µM
Procedure: The nitrite concentration in the ascitic fluid was measured using Griess reagent. For this, the peritoneal fluid of control and treated animals (12.5 mg/kg ACS03 and 25 mg/kg 5-FU) was used. The optical density was measured using a microplate spectrophotometer reader (Microplate reader BioTek Instruments, Sinergy HT, Winooski, VT, USA) at λ = 560 nm. Concentrations of nitrite were calculated from a standard curve previously established with known molar concentrations of sodium nitrite. The tests were done in quadruplicate and the values expressed in µM [51].

[12] = system: peripheral blood mononuclear cells (PBMC); assay: MTT cytotoxicity assay, PBMC; format: cell-based; conditions: Homo sapiens, 72 h
Procedure: Heparinized blood was collected from healthy donors, and the PBMC were isolated by a standard method of density-gradient centrifugation using Ficoll-Histopaque (Sigma Aldrich, St. Louis, MO, USA). PBMC were cultivated in RPMI-1640 medium supplemented with 10% fetal bovine serum, 1% penicillin–streptomycin, and 2% phytohaemagglutinin. Cells were kept at 37 °C with 5% CO2 for 24 h before the start of the experiment. This study was approved by the Ethics Committee of the Human Health Sciences Center Research (CCS), UFPB (CAAE: 22986519.0.0000.5188), Brazil.
as §2, with “PBMC. For the MTT assay, cell lines (3 × 10^5 cells/mL) and PBMC (1 × 10^6 cells/mL) were seeded on 96-well plates and cultured for 24 h. ACS03 (3.125–200 µM) was added to the cell cultures and incubated for 72 h.” for “PBMC.”

[13] = system: MCF-7 (breast cancer cell line); assay: MTT cytotoxicity assay, MCF-7; format: cell-based; conditions: Homo sapiens, MCF7; MCF-7, MTT, 72 h
Description: as §1, §2

[14] = HCT-116, MTT, 72 h, read-out: IC50

With COc1ccc2nc3cc(Cl)ccc3c(Cl)c2c1 [6,9-diclhoro-2-methoxi-acridine, 6,9-dichloro-2-methoxyacridine] the IC50 [1, 14] was 202.3 ± 1.19 µM.

For COc1ccc2nc3cc(Cl)ccc3c(Nc3sc4c(c3C#N)CCCCC4)c2c1 [ACS03, 2-((6-Chloro-2-methoxyacridin-9-yl)amino)-5,6,7,8-tetrahydro-4H-cyclohepta[b]-thiophene-3-carbonitrile], the IC50 [2] is listed as over 50 µM, the cytotoxicity against erythrocytes (erythrocytes) is listed as “no cytotoxicity” and the LDH activity ([3]; 20 µM) is listed as 378.44 ± 0.58. The LDH activity ([3]; 40 µM) was 426.74 ± 0.79, the LD50 [4] was over 5000 mg/kg and the “death in acute toxicity assay” value (Swiss albino mice; single dose 300 mg/kg i.p., test repeated) was “no death”. The “death in acute toxicity assay” value (Swiss albino mice; single dose 2000 mg/kg i.p., carried out twice) was “did not induce death”, the antileishmanial activity (Leishmania) was “showed antileishmanial activity” and the LC50 at 96 h ([5]; read-out: LC50 (median lethal concentration)) was over 1000 µM. The EC50 at 96 h ([5]; read-out: EC50 pericardial edema) was over 1000 µM, the EC50 at 96 h ([5]; read-out: EC50 reduction in larval length) was 126 µM and the EC50 at 96 h ([5]; read-out: EC50 spinal deformation) was 172 µM. For the same compound, the IC50 [6] was over 50 µM, the AChE activity ([7]; 10 µM) was 85.67 ± 0.11 and the AChE activity ([7]; 20 µM) was 94.59 ± 0.20. For the same compound, the AChE activity ([7]; 40 µM) was 94.54 ± 0.10, the cell viability ([8]; trypan blue, control 115.5 ± 23.97) was 4.12 ± 1.28 × 10^6 cells/mL and the tumor volume ([8]; control 6.93 ± 0.79 mL) was 0.0 mL. For the same compound, the GST activity ([9]; 10 µM) was 57.96 ± 0.23, the GST activity ([9]; 20 µM) was 75.83 ± 0.13 and the GST activity ([9]; 40 µM) was 86.14 ± 0.21. It also gave an IC50 [10] of over 50 µM, an IC50 [11] of 62.2 ± 1.15 µM and an IC50 ([1]; HCT-116, 72 h) of 23.1 ± 1.03 µM. The nitrite concentration (nitrite (nitric oxide)) was 188.5 ± 7.98 µM, the IC50 [12] was 115 ± 5.82 µM and the IC50 [13] was over 50 µM.

COc1cccc2c1C(=O)c1c(O)c3c(c(O)c1C2=O)C[C@@](O)(C(=O)CO)C[C@@H]3O[C@H]1C[C@H](N)[C@H](O)[C@H](C)O1 [Doxorubicin] gave an IC50 [1, 14] of 2.59 µM.
